# Assay: in vitro
# Settings: human, hela cells, % viability
row,SMILES,"viability at 28.5 h, 10 µM [%]"
1,O=S(=O)(Nc1ccc(Cl)c(Cl)c1)c1ccc(Cl)c(Cl)c1 [CBK044838],86.8
2,N#CCNS(=O)(=O)c1ccc(OC(F)(F)F)cc1 [CBK044841],111
3,O=C(NCCc1cccs1)Nc1ccccc1OC(F)(F)F [CBK044873],98
4,Cc1cc(S(=O)(=O)Nc2n[nH]cc2C#N)c(C)cc1Cl [CBK044943],91.9
5,CCOC(=O)CNS(=O)(=O)c1cccs1 [CBK044958],93.3
6,Cc1ccc(CNC(=O)NCCc2cccs2)cc1 [CBK044960],88.5
7,Cc1cc(S(=O)(=O)N2CCN(c3ccc(Cl)cc3)CC2)c(C)cc1Cl [CBK044965],114
8,Cc1cc(C)cc(NC(=O)NCCc2cccs2)c1 [CBK044998],93.2
9,O=C(NCCc1cccs1)Nc1cccc(SC(F)(F)F)c1 [CBK044999],95
10,CCc1cccc(NC(=O)NCCC2=CCCCC2)c1 [CBK045009],108
11,CC(C)c1ccc(S(=O)(=O)Nc2cc(F)c(F)c(F)c2)cc1 [CBK045028],104
12,CCc1cc(Br)ccc1S(=O)(=O)NCCc1cccs1 [CBK045033],109
13,O=C(Nc1ccccc1C(F)(F)F)N1CCN(c2ccccc2Cl)CC1 [CBK045081],79.7
14,O=S(=O)(c1ccc(Cl)s1)N1CCN(c2ccccc2Cl)CC1 [CBK045098],98
15,CC(=O)Nc1ccc(S(=O)(=O)NCC#N)cc1Cl [CBK045102],97.3
16,CCc1cc(Br)ccc1S(=O)(=O)NCc1cccc(F)c1 [CBK045114],89.1
17,O=C(NCCc1ccccc1)NCCc1cccs1 [CBK045154],114
18,O=S(=O)(c1cccs1)N1CCCN(Cc2nccs2)CC1 [CBK045172],119
19,CCCCOc1ccc(NC(=O)NCCc2cccs2)cc1 [CBK045202],105
20,O=S(=O)(c1ccc(F)c(Cl)c1)N1CCCN(Cc2ccccc2)CC1 [CBK045211],101
21,COC[C@@H]1CCCN1S(=O)(=O)c1cccs1 [CBK045239],96
22,CCC(C)(C)c1ccc(S(=O)(=O)Nc2cc(Cl)ccc2O)cc1 [CBK045243],96

row,SMILES,"viability at 28.5 h, 10 µM [%]"
1,O=C(NCCc1cccs1)Nc1ccc2c(c1)C(F)(F)OC(F)(F)O2 [CBK045255],98.2
2,Cc1ccc(NS(=O)(=O)c2cccs2)cc1 [CBK045362],64
3,O=C(NCCc1cccs1)NCc1cc(F)ccc1F [CBK045363],97.1
4,CC(=O)c1ccc(S(=O)(=O)Nc2ccc(C)cc2)cc1 [CBK045380],108
5,COc1ccc(S(=O)(=O)Nc2ccccc2C(=O)Nc2ccc(F)cc2)cc1OC [CBK045404],91.2
6,CCN(CC)C(=O)c1ccccc1NS(=O)(=O)c1cc(Br)ccc1OC [CBK045422],89.6
7,O=C(Nc1ccc(F)cc1)c1ccccc1NS(=O)(=O)c1ccc(C(F)(F)F)cc1[N+](=O)[O-] [CBK045439],108
8,CCOC(=O)N1CCC(NS(=O)(=O)c2ccc(F)cc2)CC1 [CBK045455],95.1
9,CCOC(=O)N1CCC(NS(=O)(=O)Cc2ccccc2)CC1 [CBK045457],90.7
10,CCOC(=O)N1CCC(NS(=O)(=O)c2cc(Cl)sc2Cl)CC1 [CBK045462],86.7
11,CCOC(=O)N1CCC(NS(=O)(=O)c2cc(Br)ccc2OC)CC1 [CBK045463],115
12,CCOC(=O)N1CCC(NS(=O)(=O)c2ccc(OC)c(OC)c2)CC1 [CBK045464],104
13,CCOC(=O)N1CCC(NS(=O)(=O)Cc2ccccc2[N+](=O)[O-])CC1 [CBK045467],97.3
14,CCOC(=O)N1CCC(NS(=O)(=O)c2ccc(C)c([N+](=O)[O-])c2)CC1 [CBK045468],85.8
15,CCOC(=O)N1CCC(NS(=O)(=O)c2ccc(NC(C)=O)cc2)CC1 [CBK045470],97.8
16,CCOC(=O)N1CCC(NS(=O)(=O)c2ccc(Cl)c(Cl)c2Cl)CC1 [CBK045471],96.4
17,CCCCCC(=O)Nc1ccc(S(=O)(=O)Nc2nnc(CC)s2)cc1 [CBK045478],89
18,Cc1ccc(S(=O)(=O)Nc2nnc(C)s2)cc1 [CBK045486],92.5
19,O=S(=O)(Nc1nncs1)c1ccccc1 [CBK045489],86.7
20,CC(=O)Nc1ccc(S(=O)(=O)Nc2nnc(C(C)(C)C)s2)cc1 [CBK045499],100
21,CC(C)(C)c1nnc(NS(=O)(=O)c2ccc([N+](=O)[O-])cc2)s1 [CBK045500],93.3
22,CC(=O)Nc1ccc(S(=O)(=O)Nc2nnc(Cc3ccc(Cl)cc3)s2)cc1 [CBK045515],97.9

row,SMILES,"viability at 28.5 h, 10 µM [%]"
1,Cc1cc(C)c(S(=O)(=O)Nc2nnc(C(C)C)s2)c(C)c1 [CBK045516],102
2,COc1ccc(S(=O)(=O)Nc2nnc(C(C)C)s2)cc1 [CBK045525],91.3
3,COCc1nnc(NS(=O)(=O)c2ccc(Br)cc2)s1 [CBK045526],115
4,Cc1ccc(S(=O)(=O)Nc2nnc(C(C)C)s2)cc1 [CBK045528],108
5,O=S(=O)(Cc1ccccc1)Nc1nnc(C(F)(F)F)s1 [CBK045539],84.8
6,CC(C)c1nnc(NS(=O)(=O)Cc2ccccc2)s1 [CBK045540],93
7,COc1ccc(S(=O)(=O)Nc2nnc(C)s2)cc1 [CBK045543],114
8,Cc1nc(NS(=O)(=O)/C=C/c2ccccc2)sc1C(=O)O [CBK045553],84.7
9,Cc1nc(NS(=O)(=O)c2cc(F)c(Br)cc2F)sc1C(=O)O [CBK045556],96.5
10,Cc1nc(NS(=O)(=O)c2cccc(Cl)c2C)sc1C(=O)O [CBK045561],110
11,Cc1ccc(S(=O)(=O)Nc2nc(C)c(C(=O)O)s2)cc1[N+](=O)[O-] [CBK045565],91.3
12,O=S(=O)(NCc1cccc(Cl)c1)c1csc2ccnc(N3CCNCC3)c12 [CBK045595C],88.6
13,COc1ccc(N(C)C(=O)N[C@@H]2CC[C@@]3(c4ccc(OC)c(OC)c4)CCN(C)[C@H]3C2)cc1 [CBK045653T],112
14,OCc1ncccc1OCCOC1CCCCO1 (centres unmarked) [CBK045702],97.5
15,COc1ccc([C@@]23CC[C@@H](NC(=O)Nc4cccc(Br)n4)C[C@@H]2N(C)CC3)cc1OC [CBK045703],85.4
16,COc1ccc([C@@]23CC[C@@H](NC(=O)Nc4ccc(Cl)nc4)C[C@@H]2N(C)CC3)cc1OC [CBK045764],91.9
17,COc1ccc([C@@]23CCC(CC(=O)O)C[C@@H]2N(C)CC3)cc1OC (some centres unmarked) [CBK045765A],107
18,CCCCc1ccc(S(=O)(=O)n2ccc3c(N4CCNCC4)nccc32)cc1 [CBK045805C],100
19,Cc1ccc(S(=O)(=O)Nc2nc(C)c(C(=O)N3CCN(C)CC3)s2)cc1 [CBK045812],88.3
20,Cc1nc(NS(=O)(=O)c2cc(Cl)sc2Cl)sc1C(=O)N1CCN(C)CC1 [CBK045818],106
21,Oc1cccnc1N1CCNCC1 [CBK045850],88.8
22,Cc1oc(-c2cccc(Cl)c2)cc1C(=O)O [CBK045856],78

row,SMILES,"viability at 28.5 h, 10 µM [%]"
1,COc1ccc([C@@]23CC[C@@H](NC(=O)Nc4cc(C)nc(C)c4)C[C@@H]2N(C)CC3)cc1OC [CBK045876],90.9
2,CCCCCCN1CCN(c2nccn(CCOc3cc(F)c(F)cc3F)c2=O)CC1 [CBK045889C],113
3,CCCC(=O)Nc1ccccc1OC1CCNCC1 [CBK045902T],98
4,COc1cc(F)cc(OC2CCNCC2)c1NC(=O)C1CCC1 [CBK045912T],92.3
5,Cc1nn(C)c(N2CCNCC2)c1NC(=O)C(C)c1ccccc1 (centres unmarked) [CBK045929T],108
6,Cc1noc(C)c1NC(=O)N(Cc1ccccc1C(F)(F)F)C1CCC(N)CC1 (centres unmarked) [CBK045963C],103
7,NCc1ccc(CN(Cc2cccc(Cl)c2)C(=O)NC(c2ccccc2)c2ccccc2)cc1 [CBK046087C],91.6
8,NCc1ccc(CN(Cc2cnc(-c3ccccc3)[nH]2)C(=O)Nc2ccc3c(c2)OCO3)cc1 [CBK046158C],89
9,CC(C)(C)c1ccccc1NC(=O)N(CCN)Cc1cc(F)cc(F)c1 [CBK046263C],98.6
10,CC(=O)Nc1c(C#N)cnn1C [CBK046332],96
11,COc1ccccc1-c1nc(C2CCCN2C(=O)CCCC(=O)O)n2ccccc12 (centres unmarked) [CBK046600],90.3
12,COc1ccccc1-c1nc(C2CCCN2C(=O)N[C@@H](C)c2ccccc2)n2ccccc12 (some centres unmarked) [CBK046625],109
13,CC(CC(=O)O)CC(=O)N1CCCC1c1nc(-c2ccc(F)cc2)c2ccccn12 (centres unmarked) [CBK046626],99.4
14,O=C(Nc1ccc2c(c1)CCO2)N1CCCC1c1nc(-c2ccccc2)c2ccccn12 (centres unmarked) [CBK046733],117
15,O=C(O)COCC(=O)N1CCCC(c2nc(-c3ccccc3)c3ccccn23)C1 (centres unmarked) [CBK046806],86.1
16,Cc1ccc(-c2nc(C3CCN(C(=O)NC(C)C)CC3)n3ccccc23)cc1 [CBK046861],95
17,O=C(NC(=O)N1CCC2(CC1)NCCc1c2[nH]c2ccc(O)cc12)c1ccccc1 [CBK046936],87.4
18,O=C(O)c1ccccc1C(=O)N1CCC2(CC1)OCCc1c2[nH]c2ccccc12 [CBK046981],94.9
19,O=C(NC(=O)N1CCC2(C1)NCCc1c2[nH]c2ccccc12)c1ccccc1 (centres unmarked) [CBK046985],94.2
20,C/C(C(=O)O)=C(/C)C(=O)N1CCC2(C1)NCCc1c2[nH]c2ccccc12 (centres unmarked) [CBK046995],100
21,COc1ccc2[nH]c3c(c2c1)CCNC31CCN(C(=O)NC(C)(C)C)CC1 [CBK047069],97.4
22,COc1ccc(-c2nc(C3CCN(C(=O)NC(C)(C)C)CC3)n3ccccc23)cc1 [CBK047080],97.4

# Same assay, conditions: human, hela cells, % viability, bulk resorufin, single well
row,SMILES,"viability at 28.5 h, 10 µM [%]"
1,O=C(Nc1ccc(OC(F)(F)F)cc1)N1CCC2(CC1)OCCO2 [CBK045235],91.7

# Source: PMC12040169 (PLOS Biology, 2025)
